Test results: patent US10457679B2, “Imidazo[4,5-c]quinolin-2-one compounds and their use in treating cancer” (AstraZeneca AB, priority 2015, dated 2019)

Tests used:
[1] = molecular target: T1, ATM kinase (Homo sapiens, UniProt Q13315); experiment: Assay a) ATM cellular potency (pATM Ser1981 in X-ray irradiated HT29 cells); format: cell-based; conditions: HT29 cells, 1 h compound, X-ray ~600 cGy, pATM Ser1981; may be geometric mean of several tests; read-out: Assay a) ATM Cell IC50
T1 construct: endogenous in cells; host or cells: HT29 cells (ECACC #85061109)
Protocol: The following assays were used to measure the effects of the compounds of the present invention: a) ATM cellular potency assay; b) PI3K cellular potency assay; c) mTOR cellular potency assay; d) ATR cellular potency assay. During the description of the assays, generally: • i. […] IC50 values were calculated using a smart fitting model in Genedata. […] Assay a): ATM Cellular Potency Rationale:
Most ATM molecules in the cell are rapidly phosphorylated on this site after doses of radiation as low as 0.5 Gy, and binding of a phosphospecific antibody is detectable after the introduction of only a few DNA double-strand breaks in the cell.
The rationale of the pATM assay is to identify inhibitors of ATM in cells. HT29 cells are incubated with test compounds for 1 hr prior to X-ray-irradiation. 1 h later the cells are fixed and stained for pATM (Ser1981). The fluorescence is read on the arrayscan imaging platform.
The following morning compounds of Formula (I) in 100% DMSO were added to assay plates by acoustic dispensing. After 1 h incubation at 37° C. and 5% CO2, plates (up to 6 at a time) were irradiated using the X-RAD 320 instrument (PXi) with equivalent to ˜600 cGy. Plates were returned to the incubator for a further 1 h. […] Then 20 μl of 0.1% Triton X100 in PBS was added and incubated for 20 minutes at r.t., to permeabalise cells. Then the plates were washed once with 50 μl/well PBS, using a Biotek EL405 plate washer.
After 1 h incubation at r.t., the plates were washed three times with 50 μl/well PBS, using a Biotek EL405 plate washer, and plates were sealed and kept in PBS at 4° C. until read. Plates were read using an ArrayScan VTI instrument, using an XF53 filter with 10× objective.

[2] = molecular target: T2, ATR kinase (Homo sapiens, UniProt Q13535); experiment: Assay b) ATR cellular potency (pChk1 Ser345 in HT29 cells after 4NQO); format: cell-based; conditions: HT29 cells, 4NQO, pChk1 Ser345; may be geometric mean of several tests; read-out: Assay b) ATR Cell IC50
T2 construct: measuring a decrease in phosphorylation of Chk1 (Ser 345) in HT29 cells; endogenous in cells; host or cells: HT29 cells (ECACC #85061109)
Source text: Assay b): ATR Cellular Potency
ATR is a PI 3-kinase-related kinase which phosphorylates multiple substrates on serine or threonine residues in response to DNA damage during or replication blocks. Chk1, a downstream protein kinase of ATR, plays a key role in DNA damage checkpoint control. Activation of Chk1 involves phosphorylation of Ser317 and Ser345 (the latter regarded as the preferential target for phosphorylation/activation by ATR).
The following morning compound of Formula (I) in 100% DMSO were added to assay plates by acoustic dispensing. After 1 h incubation at 37° C. and 5% CO2. 40 nl of 3 mM 4NQO in 100% DMSO was added to all wells by acoustic dispensing, except minimum control wells which were left untreated with 4NQO to generate a null response control. Plates were returned to the incubator for a further 1 h. […] Then 20 μl of 0.1% Triton X100 in PBS was added and incubated for 10 minutes at r.t., to permeabalise cells. Then the plates were washed once with 50 μl/well PBS, using a Biotek EL405 plate washer.
After 2 h incubation at r.t., the plates were washed three times with 50 μl/well PBS, using a Biotek EL405 plate washer, and plates were then sealed with black plate seals until read. Plates were read using an ArrayScan VTI instrument, using an XF53 filter with 10× objective.

T2 sequence (Q13535 whole entry): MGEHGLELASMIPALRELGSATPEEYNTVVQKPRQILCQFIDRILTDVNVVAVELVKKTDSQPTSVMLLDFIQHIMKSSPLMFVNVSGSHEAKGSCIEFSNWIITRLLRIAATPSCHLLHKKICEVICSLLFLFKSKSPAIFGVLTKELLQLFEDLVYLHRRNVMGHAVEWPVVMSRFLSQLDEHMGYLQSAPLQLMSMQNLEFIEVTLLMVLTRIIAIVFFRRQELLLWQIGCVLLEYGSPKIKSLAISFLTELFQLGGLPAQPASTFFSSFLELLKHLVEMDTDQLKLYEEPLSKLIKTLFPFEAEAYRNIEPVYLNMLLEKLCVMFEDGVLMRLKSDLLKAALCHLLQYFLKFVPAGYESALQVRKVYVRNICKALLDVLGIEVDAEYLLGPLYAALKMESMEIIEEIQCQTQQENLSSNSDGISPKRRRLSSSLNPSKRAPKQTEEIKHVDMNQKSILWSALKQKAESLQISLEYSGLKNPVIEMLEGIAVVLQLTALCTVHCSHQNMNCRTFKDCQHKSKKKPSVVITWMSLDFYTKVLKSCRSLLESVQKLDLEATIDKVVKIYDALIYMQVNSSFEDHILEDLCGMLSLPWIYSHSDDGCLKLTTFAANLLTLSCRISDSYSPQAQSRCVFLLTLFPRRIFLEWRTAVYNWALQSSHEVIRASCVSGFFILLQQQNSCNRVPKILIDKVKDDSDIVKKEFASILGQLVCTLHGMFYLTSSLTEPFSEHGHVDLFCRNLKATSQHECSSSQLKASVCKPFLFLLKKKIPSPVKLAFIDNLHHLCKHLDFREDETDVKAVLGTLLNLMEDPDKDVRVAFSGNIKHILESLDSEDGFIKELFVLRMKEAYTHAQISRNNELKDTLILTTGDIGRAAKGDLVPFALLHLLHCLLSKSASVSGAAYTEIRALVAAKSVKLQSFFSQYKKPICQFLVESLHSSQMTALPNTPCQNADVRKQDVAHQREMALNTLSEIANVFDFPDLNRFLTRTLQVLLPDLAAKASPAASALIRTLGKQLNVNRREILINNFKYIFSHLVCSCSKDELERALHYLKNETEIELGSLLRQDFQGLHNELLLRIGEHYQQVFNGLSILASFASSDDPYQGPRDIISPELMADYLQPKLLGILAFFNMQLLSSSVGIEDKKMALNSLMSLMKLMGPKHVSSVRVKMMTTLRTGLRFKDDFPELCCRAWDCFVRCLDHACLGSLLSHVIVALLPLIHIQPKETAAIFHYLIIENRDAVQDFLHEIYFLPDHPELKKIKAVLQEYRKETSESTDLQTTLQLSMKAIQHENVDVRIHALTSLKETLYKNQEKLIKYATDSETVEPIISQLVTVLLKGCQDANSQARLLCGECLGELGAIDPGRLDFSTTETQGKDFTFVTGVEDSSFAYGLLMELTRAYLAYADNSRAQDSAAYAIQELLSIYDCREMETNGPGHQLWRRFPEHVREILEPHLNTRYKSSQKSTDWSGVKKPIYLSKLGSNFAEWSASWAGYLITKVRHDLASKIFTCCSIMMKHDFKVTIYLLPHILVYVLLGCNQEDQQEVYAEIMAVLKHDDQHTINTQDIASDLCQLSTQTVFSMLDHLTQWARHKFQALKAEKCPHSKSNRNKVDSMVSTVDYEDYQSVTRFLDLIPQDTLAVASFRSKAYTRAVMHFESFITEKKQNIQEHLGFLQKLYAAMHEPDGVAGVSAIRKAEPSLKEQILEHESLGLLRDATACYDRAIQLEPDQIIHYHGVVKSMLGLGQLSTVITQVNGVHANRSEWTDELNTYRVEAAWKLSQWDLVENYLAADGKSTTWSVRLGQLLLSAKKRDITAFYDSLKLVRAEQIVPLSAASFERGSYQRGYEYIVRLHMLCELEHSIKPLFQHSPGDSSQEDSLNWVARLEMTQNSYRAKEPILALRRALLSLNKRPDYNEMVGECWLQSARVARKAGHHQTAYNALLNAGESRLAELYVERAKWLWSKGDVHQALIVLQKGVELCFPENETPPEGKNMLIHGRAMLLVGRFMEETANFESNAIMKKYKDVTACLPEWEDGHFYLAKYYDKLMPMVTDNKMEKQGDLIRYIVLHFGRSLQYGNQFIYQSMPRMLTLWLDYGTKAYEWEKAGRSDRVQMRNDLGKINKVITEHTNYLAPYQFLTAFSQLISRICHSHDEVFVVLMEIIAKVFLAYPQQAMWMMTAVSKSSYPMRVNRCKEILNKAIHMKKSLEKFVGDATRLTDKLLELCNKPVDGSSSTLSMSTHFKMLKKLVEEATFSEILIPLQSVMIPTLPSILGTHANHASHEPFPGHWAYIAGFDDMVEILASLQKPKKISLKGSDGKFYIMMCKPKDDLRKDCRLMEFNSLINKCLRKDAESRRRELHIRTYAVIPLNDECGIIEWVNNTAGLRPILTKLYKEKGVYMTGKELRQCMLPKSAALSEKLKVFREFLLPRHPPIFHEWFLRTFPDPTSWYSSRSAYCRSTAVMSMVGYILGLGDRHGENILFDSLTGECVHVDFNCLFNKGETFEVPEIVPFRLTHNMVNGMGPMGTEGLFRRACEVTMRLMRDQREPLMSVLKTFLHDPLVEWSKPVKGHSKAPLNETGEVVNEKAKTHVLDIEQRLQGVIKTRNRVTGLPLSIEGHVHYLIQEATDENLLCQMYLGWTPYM
T2 sequence (Q8WXE1 whole entry partner): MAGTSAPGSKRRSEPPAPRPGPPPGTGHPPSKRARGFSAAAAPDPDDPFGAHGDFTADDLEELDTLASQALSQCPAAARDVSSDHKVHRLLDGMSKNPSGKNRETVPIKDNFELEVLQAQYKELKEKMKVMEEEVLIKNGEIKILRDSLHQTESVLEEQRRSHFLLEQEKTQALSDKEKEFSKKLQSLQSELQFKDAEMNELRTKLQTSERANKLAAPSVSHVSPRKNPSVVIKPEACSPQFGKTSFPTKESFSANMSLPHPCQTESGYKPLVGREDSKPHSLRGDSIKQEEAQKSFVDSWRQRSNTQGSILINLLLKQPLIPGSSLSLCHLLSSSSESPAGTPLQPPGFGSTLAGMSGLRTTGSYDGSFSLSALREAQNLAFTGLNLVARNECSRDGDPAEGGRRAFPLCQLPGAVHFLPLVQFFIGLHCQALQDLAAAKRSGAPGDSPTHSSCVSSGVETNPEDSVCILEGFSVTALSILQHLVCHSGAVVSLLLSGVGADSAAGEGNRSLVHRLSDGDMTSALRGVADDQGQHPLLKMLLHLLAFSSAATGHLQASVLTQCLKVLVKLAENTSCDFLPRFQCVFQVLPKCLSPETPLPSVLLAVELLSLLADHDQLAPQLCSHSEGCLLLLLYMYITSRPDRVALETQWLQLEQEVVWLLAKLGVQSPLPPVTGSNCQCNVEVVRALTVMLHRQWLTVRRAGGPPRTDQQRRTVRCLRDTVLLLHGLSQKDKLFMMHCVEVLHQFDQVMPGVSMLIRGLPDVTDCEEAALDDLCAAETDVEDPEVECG

| IC50 [1] [nM] | IC50 [2] [nM] | SMILES |
| --- | --- | --- |
| 0.698 | – | CC(C)n1c(=O)n(C)c2cnc3ccc(-c4ccc(OCCCN5CCC5)nc4)cc3c21 [Example 8, 8-[6-[3-(Azetidin-1-yl)propoxy]-3-pyridyl]-1-isopropyl-3-methyl-imidazo[4,5-c]quinolin-2-one] |
| 3.51 | > 30000 | CC(C)n1c(=O)n(C)c2cnc3cc(F)c(-c4ccc(OCCCN5CCCCC5)nc4F)cc3c21 [Example 14, 7-fluoro-8-[2-fluoro-6-[3-(1-piperidyl)propoxy]-3-pyridyl]-1-isopropyl-3-methyl-imidazo[4,5-c]quinolin-2-one] |
| 0.686 | > 30000 | CC(C)n1c(=O)n(C)c2cnc3ccc(-c4ccc(OCCCN(C)C)nc4F)cc3c21 [Example 10, 8-[6-[3-(dimethylamino)propoxy]-2-fluoro-3-pyridyl]-1-isopropyl-3-methyl-imidazo[4,5-c]quinolin-2-one] |
| 0.824 | > 30000 | CC(C)n1c(=O)n(C)c2cnc3cc(F)c(-c4ccc(OCCCN5CCCC5)nc4)cc3c21 [Example 3, 7-Fluoro-1-isopropyl-3-methyl-8-[6-(3-pyrrolidin-1-ylpropoxy)-3-pyridyl]imidazo[4,5-c]quinolin-2-one] |
| 1.59 | > 30000 | CC(C)n1c(=O)n(C)c2cnc3cc(F)c(-c4ccc(OCCCN5CCC5)nc4)cc3c21 [Example 4, 8-[6-[3-(azetidin-1-yl)propoxy]-3-pyridyl]-7-fluoro-1-isopropyl-3-methyl-imidazo[4,5-c]quinolin-2-one] |
| 3.14 | > 30000 | CC(C)n1c(=O)[nH]c2cnc3cc(F)c(-c4ccc(OCCCN5CCCCC5)nc4)cc3c21 [Example 18, 7-Fluoro-1-isopropyl-8-[6-[3-(1-piperidyl)propoxy]-3-pyridyl]-3H-imidazo[4,5-c]quinolin-2-one] |
| 1.32 | > 30000 | CC(C)n1c(=O)n(C)c2cnc3cc(F)c(-c4ccc(OCCCN5CCCC5)nc4F)cc3c21 [Example 13, 7-fluoro-8-[2-fluoro-6-(3-pyrrolidin-1-ylpropoxy)-3-pyridyl]-1-isopropyl-3-methyl-imidazo[4,5-c]quinolin-2-one] |
| < 0.453 | > 30000 | CC(C)n1c(=O)n(C)c2cnc3ccc(-c4ccc(OCCCN5CCCCC5)nc4F)cc3c21 [Example 9, 8-[2-Fluoro-6-[3-(1-piperidyl)propoxy]-3-pyridyl]-1-isopropyl-3-methyl-imidazo[4,5-c]quinolin-2-one] |
| 35 | 9410 | CC(C)n1c(=O)n(C)c2cnc3cc(F)c(-c4ccc(OCCC[N+]5([O-])CCCCC5)nc4)cc3c21 [Metabolite A, 7-Fluoro-1-isopropyl-3-methyl-8-[6-[3-(1-oxidopiperidin-1-ium-1-yl)propoxy]-3-pyridyl]imidazo[4,5-c]quinolin-2-one] |
| 0.256 | > 30000 | CC(C)n1c(=O)n(C)c2cnc3ccc(-c4ccc(OCCCN5CCCC5)nc4)cc3c21 [Example 7, 1-isopropyl-3-methyl-8-[6-(3-pyrrolidin-1-ylpropoxy)-3-pyridyl]imidazo[4,5-c]quinolin-2-one] |
| 0.398 | > 20700 | CC(C)n1c(=O)n(C)c2cnc3ccc(-c4ccc(OCCCN(C)C)nc4)cc3c21 [Example 6, 8-[6-[3-(dimethylamino)propoxy]-3-pyridyl]-1-isopropyl-3-methyl-imidazo[4,5-c]quinolin-2-one] |
| 2.29 | > 30000 | CC(C)n1c(=O)n(C)c2cnc3cc(F)c(-c4ccc(OCCCN5CCC5)nc4F)cc3c21 [Example 16, 8-[6-[3-(azetidin-1-yl)propoxy]-2-fluoro-3-pyridyl]-7-fluoro-1-isopropyl-3-methyl-imidazo[4,5-c]quinolin-2-one] |
| 0.799 | > 30000 | CC(C)n1c(=O)n(C)c2cnc3ccc(-c4ccc(OCCCN5CCCC5)nc4F)cc3c21 [Example 12, 8-[2-fluoro-6-(3-pyrrolidin-1-ylpropoxy)-3-pyridyl]-1-isopropyl-3-methyl-imidazo[4,5-c]quinolin-2-one] |

| SMILES | IC50 [1] [nM] | IC50 [2] [nM] |
| --- | --- | --- |
| CC(C)n1c(=O)n(C)c2cnc3cc(F)c(-c4ccc(OCCCN5CCCCC5)nc4)cc3c21 [Example 2, 7-Fluoro-1-isopropyl-3-methyl-8-[6-[3-(1-piperidyl)propoxy]-3-pyridyl]imidazo[4,5-c]quinolin-2-one] | 0.787 | > 30000 |
